We go through three compounds from article PMC6274642, “Small molecule inhibitors reveal allosteric regulation of USP14 via steric blockade” (Cell Research, 2018).

Structures are written as SMILES.

One series has as its target T1, IsoT (Homo sapiens, UniProt P45974).
T1 construct: made in house
T1 sequence (P45974 1-858): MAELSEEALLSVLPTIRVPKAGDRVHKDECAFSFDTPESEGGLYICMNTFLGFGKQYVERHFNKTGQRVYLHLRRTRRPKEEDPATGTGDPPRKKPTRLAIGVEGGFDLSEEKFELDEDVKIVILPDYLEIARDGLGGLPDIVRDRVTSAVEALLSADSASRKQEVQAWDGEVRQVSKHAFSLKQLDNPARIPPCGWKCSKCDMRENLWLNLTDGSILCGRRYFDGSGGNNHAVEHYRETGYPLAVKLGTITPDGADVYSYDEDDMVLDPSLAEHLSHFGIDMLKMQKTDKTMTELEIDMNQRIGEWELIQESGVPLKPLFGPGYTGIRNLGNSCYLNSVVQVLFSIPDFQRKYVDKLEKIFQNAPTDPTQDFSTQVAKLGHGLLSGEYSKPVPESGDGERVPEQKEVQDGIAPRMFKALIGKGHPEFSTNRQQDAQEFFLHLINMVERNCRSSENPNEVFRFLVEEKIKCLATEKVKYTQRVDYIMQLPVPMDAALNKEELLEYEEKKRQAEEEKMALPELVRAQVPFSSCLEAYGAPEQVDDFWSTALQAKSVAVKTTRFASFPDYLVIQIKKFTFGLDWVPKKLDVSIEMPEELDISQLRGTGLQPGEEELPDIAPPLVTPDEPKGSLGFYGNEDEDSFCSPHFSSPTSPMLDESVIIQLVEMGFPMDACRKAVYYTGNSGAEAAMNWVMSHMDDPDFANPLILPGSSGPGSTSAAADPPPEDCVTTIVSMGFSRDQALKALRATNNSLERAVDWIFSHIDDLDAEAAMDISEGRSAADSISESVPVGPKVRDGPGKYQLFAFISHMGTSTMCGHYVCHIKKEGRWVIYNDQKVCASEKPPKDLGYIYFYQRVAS
Nature of the series: Ub-AMC hydrolysis assay, IsoT. It is filed as biochemical. To be noted: 1 μM Ub-AMC, 10 nM IsoT. The source says:
Ub-AMC hydrolysis activity of IsoT.

The target of the next series is proteasome-bound USP14 (Homo sapiens, UniProt P54578). As to the kind of experiment: Ub-AMC hydrolysis assay, proteasome-activated USP14.
A short description of another series: Solubility. It is filed as physicochemical. The note with it: qualitative.
Another series addresses T2, USP14 (Homo sapiens, UniProt P54578).
T2 construct: Glutathione S-transferase (GST)-tagged full-length USP14; GST (N); made in house
As to the kind of experiment: Kinetic analysis (Vm, Km) of Ub-AMC hydrolysis by USP14. The note with it: Km varied, Vm unchanged with inhibitor concentration. It is filed as biochemical. The procedure: Menten plot of the concentration-dependence of Ub-AMC (1-48 μM) hydrolysis in the presence
The data were fit to a curve by nonlinear regression
(§1) (1 picture or pasted object on this page, not shown here)

The target of series [1] is T3, USP14 Y436A (Homo sapiens, UniProt P54578, Y436A). Nature of the series: In vitro Ub-PA assay, USP14 Y436A mutant. It is filed as binding. Further details: catalytic domain (residues 96–494) of USP14 were cloned into the pGEX-6P-1 vector; GST (N); made in house.
Target sequence in this assay (P54578 96-494 Y436A): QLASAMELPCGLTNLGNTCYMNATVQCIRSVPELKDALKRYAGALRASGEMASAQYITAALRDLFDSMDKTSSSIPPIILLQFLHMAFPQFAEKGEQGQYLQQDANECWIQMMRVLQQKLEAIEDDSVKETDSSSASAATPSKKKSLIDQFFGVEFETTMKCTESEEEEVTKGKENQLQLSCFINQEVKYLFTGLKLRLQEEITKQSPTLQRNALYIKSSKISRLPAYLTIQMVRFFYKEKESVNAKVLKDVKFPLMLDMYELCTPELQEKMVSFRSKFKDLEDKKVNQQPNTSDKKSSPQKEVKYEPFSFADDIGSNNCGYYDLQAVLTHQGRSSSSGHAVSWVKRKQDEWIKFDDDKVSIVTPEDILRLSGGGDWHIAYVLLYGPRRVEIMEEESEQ
Series [2] has as its target T4, USP14 H426E (Homo sapiens, UniProt P54578, H426E). As to the kind of experiment: In vitro Ub-PA assay, USP14 H426E mutant. The series is classed as binding. Also on record: catalytic domain (residues 96–494) of USP14 were cloned into the pGEX-6P-1 vector; GST (N); made in house.
Target sequence in this assay (P54578 96-494 H426E): as the sequence (P54578 96-494 Y436A) above, with H331E, A341Y counted along it
The target in series [3] is T3, USP14 Y436A. As to the kind of experiment: Ub-AMC hydrolysis assay, USP14 Y436A mutant. Further details: Glutathione S-transferase (GST)-tagged full-length USP14; GST (N); made in house. The series is classed as biochemical. The note with it: 15 μM compound.
Text: (§2) Supplementary information, Fig. S3 Structural and biochemical analyses of the three […]
(§3) (a) H426 of USP14 forms a hydrogen bind with R74 of Ub, while Y476 forms a hydrogen bound with D199. (b) The Y476K, Y476R and D199A point mutations all abolish the formation of USP14/Ub-PA complex. The result was visualized by SDS-PAGE and Coomassie blue staining. (c-f) Linear kinetics of Ub-AMC hydrolysis by USP14 WT, H426E, Y436A and […]
(§4) curves have R2>0.99. Error bars represent SDs.
as §1

For the next series, the target named is T5, USP14^CAT (Homo sapiens, UniProt P54578).
T5 construct: catalytic domain (residues 96–494) of USP14 were cloned into the pGEX-6P-1 vector; GST (N, cleaved yes); made in house
Nature of the series: In vitro Ub-PA assay, USP14^CAT. The note with it: 5 mM compound, 3 μM USP14^CAT, preincubation 1 h 25 °C, 12 μM Ub-PA. It is filed as binding. On the procedure: All the results were visualized by SDS-PAGE and Coomassie blue staining. Ub-PA ubiquitin-propargylamide
We then turned to the biochemical Ub-PA (ubiquitin-propargylamide) assay. […] The covalent attachment of Ub-PA (8 kD) to USP14^CAT (45 kD) produced the novel USP14/Ub-PA complex with an increased molecular weight (53 kD).
(§5) For Ub-PA binding, 3 μM DUB protein (USP14^CAT, USP7^CAT, UCH-L1, or UCH-L3) was mixed with 12 μM Ub-PA for at least 1 h at room temperature in a reaction system containing 25 mM Tris-HCl (pH 7.5) and 150 mM NaCl. […] The DMSO concentration should be no more than 10% (v/v). All the samples were analyzed by SDS-PAGE, and the results are shown.

Another series concerns the target T6, UCH-L3 (Homo sapiens, UniProt P15374).
T6 construct: made in house
T6 sequence (P15374 1-230): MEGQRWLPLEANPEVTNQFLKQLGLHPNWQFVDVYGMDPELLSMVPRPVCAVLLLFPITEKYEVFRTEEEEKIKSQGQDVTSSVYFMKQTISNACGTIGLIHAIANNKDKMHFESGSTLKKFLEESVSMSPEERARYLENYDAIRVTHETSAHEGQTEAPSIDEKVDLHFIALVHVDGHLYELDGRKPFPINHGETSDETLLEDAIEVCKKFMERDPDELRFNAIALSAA
As to the kind of experiment: In vitro Ub-PA assay, UCH-L3. The series is classed as binding. The note with it: 5 mM compound, 3 μM DUB protein, 12 μM Ub-PA. On the procedure:
(§6) Linear kinetics of Ub-AMC hydrolysis are shown on the left, and the results of the statistical analysis are shown on the right. […] Error bars represent SDs. […] All the results were visualized by SDS-PAGE and Coomassie blue staining
as §5

The target in a further series is T7, USP14 Y476A (Homo sapiens, UniProt P54578, Y476A).
T7 construct: Glutathione S-transferase (GST)-tagged full-length USP14; GST (N); made in house
Nature of the series: Ub-AMC hydrolysis assay, USP14 Y476A mutant. It is filed as biochemical. The note with it: 15 μM compound.
Text: as §2, §3, §4, §1

The target in a further series is T8, USP7 F409A (Homo sapiens, UniProt Q93009, F409A).
T8 construct: made in house
Nature of the series: Ub-AMC hydrolysis assay, USP7 F409A. It is filed as biochemical. The note with it: 100 μM compound.
Text: To explain the selectivity of IU1, we first compared the sequence conservation among the USP family. USP14 shares homology with USP2, IsoT, USP7, and USP15, ranging from 28% to 35%, in the catalytic domain. […] First, we compared the structure of USP14^CAT-IU1 with that of apo USP7 (Fig. 3a, b). H426 and Y436 in USP14 aligned well with the corresponding residues in USP7. […] Consistent with this scenario, when we compared the primary sequence and structure of USP14^CAT-IU1 with UCH-L1 and UCH-L3, neither the primary sequence nor the structure of USP14 aligned well with UCH-L1 or UCH-L3 (Fig. 3e, f).
as §6

Another series deals with T9, UCH-L1 (Homo sapiens, UniProt P09936).
T9 construct: made in house
T9 sequence (P09936 1-223): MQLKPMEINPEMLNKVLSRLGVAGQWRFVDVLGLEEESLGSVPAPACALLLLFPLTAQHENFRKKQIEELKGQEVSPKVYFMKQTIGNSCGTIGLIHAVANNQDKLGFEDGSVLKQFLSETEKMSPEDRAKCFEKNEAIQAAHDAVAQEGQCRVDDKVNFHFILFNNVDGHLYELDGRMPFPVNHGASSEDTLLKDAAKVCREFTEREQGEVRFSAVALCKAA
Nature of the series: In vitro Ub-PA assay, UCH-L1. To be noted: 5 mM compound, 3 μM DUB protein, 12 μM Ub-PA. The series is classed as binding. The procedure: as §6, §5

Another series concerns the target T10, USP7 (Homo sapiens, UniProt Q93009).
T10 construct: 3 μM DUB protein (USP14^CAT, USP7^CAT, UCH-L1, or UCH-L3); made in house
Nature of the series: In vitro Ub-PA assay, USP7. It is filed as binding. The note with it: 5 mM compound, 3 μM DUB protein, 12 μM Ub-PA. On the procedure:
as §6, §5

For series [4], the target named is T4, USP14 H426E. Nature of the series: Ub-AMC hydrolysis assay, USP14 H426E mutant. The series is classed as biochemical. Further details: Glutathione S-transferase (GST)-tagged full-length USP14; GST (N); made in house. To be noted: 15 μM compound.
Text: as §2, §3, §4, §1

T5 sequence (P54578 96-494): as the sequence (P54578 96-494 Y436A) above, with A341Y counted along it
T10 sequence (Q93009 214-521 limits assumed): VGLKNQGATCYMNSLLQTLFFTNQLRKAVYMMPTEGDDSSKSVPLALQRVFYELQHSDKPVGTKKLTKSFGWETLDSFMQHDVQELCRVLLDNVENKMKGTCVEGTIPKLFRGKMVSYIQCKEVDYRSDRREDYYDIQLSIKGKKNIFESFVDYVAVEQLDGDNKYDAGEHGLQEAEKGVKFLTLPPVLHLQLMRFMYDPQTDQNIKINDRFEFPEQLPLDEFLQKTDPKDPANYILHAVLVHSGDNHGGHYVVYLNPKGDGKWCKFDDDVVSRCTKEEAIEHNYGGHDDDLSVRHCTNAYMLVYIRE
T8 sequence (Q93009 whole entry F409A): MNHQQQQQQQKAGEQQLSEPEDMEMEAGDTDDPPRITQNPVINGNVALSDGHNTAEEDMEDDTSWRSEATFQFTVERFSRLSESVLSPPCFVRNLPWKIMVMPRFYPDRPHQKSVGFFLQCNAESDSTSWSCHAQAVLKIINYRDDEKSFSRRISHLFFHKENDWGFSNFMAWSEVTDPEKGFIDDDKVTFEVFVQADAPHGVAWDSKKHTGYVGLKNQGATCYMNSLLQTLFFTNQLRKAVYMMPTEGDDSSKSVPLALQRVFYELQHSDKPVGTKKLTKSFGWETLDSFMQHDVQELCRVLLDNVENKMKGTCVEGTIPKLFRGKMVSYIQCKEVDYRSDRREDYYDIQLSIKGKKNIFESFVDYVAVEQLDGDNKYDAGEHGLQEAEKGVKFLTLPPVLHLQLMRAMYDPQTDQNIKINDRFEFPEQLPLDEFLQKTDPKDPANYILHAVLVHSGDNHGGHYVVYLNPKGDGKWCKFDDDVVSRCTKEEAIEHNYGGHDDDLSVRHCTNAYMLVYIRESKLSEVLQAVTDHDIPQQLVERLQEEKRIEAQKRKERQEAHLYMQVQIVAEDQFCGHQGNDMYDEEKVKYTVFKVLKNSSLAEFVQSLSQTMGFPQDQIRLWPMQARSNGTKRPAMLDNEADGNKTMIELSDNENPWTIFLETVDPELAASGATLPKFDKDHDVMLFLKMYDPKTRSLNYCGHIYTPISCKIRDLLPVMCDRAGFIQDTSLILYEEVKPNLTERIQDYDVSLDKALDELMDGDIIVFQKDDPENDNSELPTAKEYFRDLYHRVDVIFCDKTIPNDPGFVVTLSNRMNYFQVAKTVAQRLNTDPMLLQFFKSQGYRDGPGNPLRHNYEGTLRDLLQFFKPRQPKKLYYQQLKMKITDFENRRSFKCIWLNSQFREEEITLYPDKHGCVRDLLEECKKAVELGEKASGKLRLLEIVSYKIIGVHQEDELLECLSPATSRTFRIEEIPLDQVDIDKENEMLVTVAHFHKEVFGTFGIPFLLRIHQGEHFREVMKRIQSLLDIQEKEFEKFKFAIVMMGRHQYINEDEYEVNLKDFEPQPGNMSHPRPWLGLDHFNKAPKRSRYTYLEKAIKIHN
Experimental for proteasome-bound USP14: It was used to measure the deubiquitinating activity of USP14 variants. The deubiquitination assay was performed by following a published protocol.[7] […] To start the reaction, 1 μM Ub-AMC was added to the system. […] Fluorescence intensity was recorded every 30 s for 15 min. Each experiment was repeated three times, and the average value was calculated.
curves for small-molecule-mediated inhibition of the Ub-AMC hydrolysis activity of
1 nM proteasome. (d-f) Dose-response curves for small-molecule-mediated inhibition of the
Ub-AMC hydrolysis activity of IsoT. The reaction system contained 1 μM Ub-AMC and 10
nM IsoT. All the values correspond to the averages of triplicate experiments.

For the compound `Cc1cc(C(=O)CN2CCCCC2)c(C)n1-c1ccc(Cl)cc1` [IU1-47], the half-maximal inhibitory concentration (IC50) against IsoT was 29.1 µM; on proteasome-bound USP14 (read-out: IC50 USP14, 1 μM Ub-AMC, 15 nM USP14, 1 nM proteasome) it was 0.68 µM. The IsoT/USP14 at proteasome-bound USP14 (ratio of IC50 values IsoT/USP14) turned out to be 42.85.
For `Cc1cc(C(=O)CN2CCC(O)CC2)c(C)n1-c1ccc(C#N)cc1` [IU1-248, 1-[1-(4-cyanophenyl)-2,5-dimethyl-1H-pyrrol-3-yl]-2-(4-hydroxyl) piperidylethan-1-one], in the series “Solubility”, the Solubility result is on record as “significantly improved solubility”. The compound also showed an IC50 against IsoT of 21.5 µM. Besides, the “Mode of inhibition of USP14” value on USP14 was “competitive mechanism”. Besides, on USP14 Y436A [1] (2.5 mM IU1-248), the “Inhibition of Ub-PA binding to USP14 Y436A” value is given as “abolished the inhibitory effect”. Further, the “Inhibition of Ub-PA binding to USP14 H426E” value on USP14 H426E [2] (2.5 mM IU1-248) is “abolished the inhibitory effect”.
As for `Cc1cc(C(=O)CN2CCCC2)c(C)n1-c1ccc(F)cc1` [IU1], in the series “Solubility”, the Solubility result is recorded as “poor solubility”. The compound further registered an IC50 on IsoT of 143 µM. In addition, the “Inhibition of Ub-AMC hydrolysis activity of USP14 Y436A” value at USP14 Y436A [3] is reported as “no inhibition”. The “Mode of inhibition of USP14” value on USP14 was “competitive inhibitor”. Moreover, the “Inhibition of formation of USP14/Ub-PA complex” value at USP14^CAT is reported as “significantly inhibited”. Further, the “Inhibition of binding of Ub-PA to UCH-L3” value at UCH-L3 is listed as “did not inhibit”. Also, the “Inhibition of Ub-PA binding to USP14 Y436A” value at USP14 Y436A [1] (5 mM IU1) is given as “could not be inhibited”. The “Inhibition of Ub-AMC hydrolysis activity of USP14 Y476A” value at USP14 Y476A is listed as “no inhibition”. The “Effect on Ub-AMC hydrolysis activity of USP7 F409A” value at USP7 F409A was “decreased”. The “Inhibition of binding of Ub-PA to UCH-L1” value at UCH-L1 is on record as “did not inhibit”. Besides, at USP7, the “Inhibition of binding of Ub-PA to USP7” value is listed as “did not inhibit”. Besides, the “Inhibition of Ub-AMC hydrolysis activity of USP14 H426E” value at USP14 H426E [4] is recorded as “no inhibition”. Further, the “Inhibition of Ub-PA binding to USP14 H426E” value at USP14 H426E [2] (5 mM IU1) is listed as “could not be inhibited”.

For orientation: IC50 means the concentration that inhibits the measured activity by half.
